In series [1] the test system is two-spotted spider mite (Tetranychus urticae). The series can be described thus: Tetranychus test (OP-resistant/dipping treatment). Format: in vivo. The settings on record: 312 h, read-out: destruction. The procedure:
Tetranychus Test (OP-resistant/dipping treatment)
(§1) Solvent: 7 parts by weight of dimethylformamide
(§2) Emulsifier: 1 part by weight of alkylaryl polyglycol ether
To produce a suitable preparation of active compound, 1 part by weight of active compound is mixed with the stated amount of solvent and the stated amount of emulsifier, and the concentrate is diluted with emulsifier-containing water to the desired concentrations.
Bean plants (Phaseolus vulgaris) which are heavily infested with all stages of the two-spotted spider mite (Tetranychus urticae) are treated by being dipped into a preparation of the active compound of the desired concentration.
After the desired time, the effect in % is determined. 100% means that all the spider mites have been killed; 0% means that none of the spider mites have been killed.

Series [2] concerns caterpillars of the owlet moth (Spodoptera frugiperda). The series can be described thus: Spodoptera frugiperda test (cabbage leaves dipped). The settings on record: after 7 days, 0.1% active compound; for mortality at 0.1 % strength: Spodoptera frugiperda, 168 h, read-out: destruction. Type of series: in vivo. How it is done:
Spodoptera Frugiperda-Test Solvent: 7 parts by weight of dimethylformamide Emulsifier: 1 part by weight of alkylaryl polyglycol ether To produce a suitable preparation of active compound, 1 part by weight of active compound is mixed with the stated amount of solvent and the stated amount of emulsifier, and the concentrate is diluted with water to the desired concentration. Cabbage leaves (Brassica oleracea) are treated by being dipped into the preparation of active compound of the desired concentration and are infested with caterpillars of the owlet moth (Spodoptera frugiperda), as long as the leaves are still moist.

Series [3] deals with caterpillars of the diamond-back moth (Plutella maculipennis). Nature of the series: Plutella test (cabbage leaves dipped). Type of series: in vivo. The settings on record: 168 h, after 7 days, 0.0001% active compound, read-out: destruction. The procedure:
as §1, §2
To produce a suitable preparation of active compound, 1 part by weight of active compound is mixed with the stated amount of solvent and the stated amount of emulsifier, and the concentrate is diluted with water to the desired concentration.
Cabbage leaves (Brassica oleracea) are treated by being dipped into the preparation of active compound of the desired concentration and are infested with caterpillars of the diamond-back moth (Plutella maculipennis) while the leaves are still moist.
After the desired time, the destruction in % is determined. 100% means that all the caterpillars have been killed; 0% means that none of the caterpillars have been killed.

Series [4] deals with mustard beetle larvae (Phaedon cochleariae). The series can be described thus: Phaedon larvae test (cabbage leaves dipped). Type of series: in vivo. The settings on record: after 7 days, 0.01% active compound; for mortality at 0.01 % strength: Phaedon cochleariae, 168 h, read-out: destruction. How it is done:
Phaedon Larvae Test Solvent: 7 parts by weight of dimethylformamide Emulsifier: 1 part by weight of alkylaryl polyglycol ether To produce a suitable preparation of active compound, 1 part by weight of active compound is mixed with the stated amount of solvent and the stated amount of emulsifier, and the concentrate is diluted with water to the desired concentration. Cabbage leaves (Brassica oleracea) are treated by being dipped into the preparation of the active compound of the desired concentration and are infested with mustard beetle larvae (Phaedon cochleariae), as long as the leaves are still moist.

For series [5], the system named is green peach aphid (Myzus persicae). Nature of the series: Myzus test (infested broad bean seedlings dipped). Type of series: in vivo. The settings on record: 144 h, after 6 days, 0.01% active compound, read-out: destruction. The procedure:
as §1, §2
To produce a suitable preparation of active compound, 1 part by weight of active compound is mixed with the stated amount of solvent and the stated amount of emulsifier and the concentrate is diluted with water to the desired concentration.
Seedlings of broad beans (Vicia faba) infested by the green peach aphid (Myzus persicae) are dipped into the preparation of active compound of the desired concentration and placed in a plastic container.
After the desired time, the destruction in % is determined. 100% means that all the aphids have been killed; 0% means that none of the aphids has been killed.

The nature of series [6]: log p (partition coefficient octanol/water, determined experimentally from reversed phase HPLC). Type of series: physicochemical. The settings on record: reversed phase hplc. The text has this:
[log p=logarithm of the partition coefficient p of the substance between the solvents octanol and water, determined experimentally from reversed phase HPLC]

Each structure is given as a SMILES string. Like-named read-outs stand apart in the source and are kept apart here.

With `COc1ccc(-c2ccc(C3COC(c4c(F)cccc4F)=N3)cc2)cc1` (centres unmarked) [(A), reference compound], in series [1] (after 13 days, 0.001% active compound), the mortality at 0.001 % strength stood at 45%. Moreover, the destruction entry in series [2] and in series [4] was “no destruction” each time. In addition, the mortality at 0.0001 % strength in series [3] amounted to 5%. The mortality at 0.01 % strength in series [5] came out at 5%.

For `O=C(COc1ccc(-c2ccc(C3COC(c4c(F)cccc4F)=N3)cc2)cc1)c1ccccc1` (centres unmarked) [Example 1, 2-(2,6-difluorophenyl)-4-(4'-benzoylmethoxy-biphenyl-4-yl)-1,3-oxazoline], the mortality at 0.001 % strength in series [1] stood at 98%. In series [2], the mortality at 0.1 % strength is 100%. Besides, the mortality at 0.01 % strength in series [4] turned out to be 100%.

Broadly, the chromatographic logP is lipophilicity estimated from chromatographic retention. For the molecule `CON=C(COc1ccc(-c2ccc(C3COC(c4c(F)cccc4F)=N3)cc2)cc1)c1ccccc1` (centres unmarked) [Example 2], in series [1], the mortality at 0.001 % strength was found to be 98%. Besides, the mortality at 0.1 % strength in series [2] was found to be 100%. The mortality at 0.0001 % strength in series [3] is 100%. Also, in series [4], the mortality at 0.01 % strength was found to be 100%. The molecule also returned a chromatographic logP in series [6] of 5.01.

In the case of `CC(C#N)Oc1ccc(-c2ccc(C3COC(c4c(F)cccc4F)=N3)cc2)cc1` (centres unmarked) [Example 4, 2-(2,6-difluorophenyl)-4-[4'-(2-propionitriloxy)-biphenyl-4-yl]-1,3-oxazoline], in series [2], the mortality at 0.1 % strength came to 100%. Also, the mortality at 0.0001 % strength in series [3] was 100%. Moreover, in series [4], the mortality at 0.01 % strength turned out to be 100%.

On to `CC(C)(C)OC(=O)COc1ccc(-c2ccc(C3COC(c4c(F)cccc4F)=N3)cc2)cc1` (centres unmarked) [Example 10], for which the mortality at 0.1 % strength in series [2] was found to be 100%. Besides, the chromatographic logP in series [6] amounted to 4.43.

`CON=C(C)COc1ccc(-c2ccc(C3COC(c4c(F)cccc4F)=N3)cc2)cc1` (centres unmarked) [Example 13]: in series [4], the mortality at 0.01 % strength stood at 100%.

In the case of `N#CCCCOc1ccc(-c2ccc(C3COC(c4c(F)cccc4F)=N3)cc2)cc1` (centres unmarked) [Example 14], in series [2], the mortality at 0.1 % strength is 100%. The mortality at 0.01 % strength in series [4] was 100%.

In the case of `CCOC(CCOc1ccc(-c2ccc(C3COC(c4c(F)cccc4F)=N3)cc2)cc1)OCC` (centres unmarked) [Example 16], in series [2], the mortality at 0.1 % strength was 100%. Moreover, the mortality at 0.01 % strength in series [4] was 100%. The chromatographic logP in series [6] came out at 4.74.

Take `COC(=O)C(Oc1ccc(-c2ccc(C3COC(c4c(F)cccc4F)=N3)cc2)cc1)C(C)C` (centres unmarked) [Example 18]: the mortality at 0.1 % strength in series [2] turned out to be 100%. In series [6], this molecule came in with a chromatographic logP of 4.56.

`CC(Oc1ccc(-c2ccc(C3COC(c4c(F)cccc4F)=N3)cc2)cc1)C1=NOCCO1` (centres unmarked) [Example 20]: the mortality at 0.1 % strength in series [2] came to 100%. Also, the mortality at 0.01 % strength in series [4] was 100%.

With `CCCC(C#N)Oc1ccc(-c2ccc(C3COC(c4c(F)cccc4F)=N3)cc2)cc1` (centres unmarked) [Example 21], the mortality at 0.1 % strength in series [2] was determined as 100%. Moreover, the mortality at 0.01 % strength in series [4] came out at 100%.

Turning to `CCON=C(COc1ccc(-c2ccc(C3COC(c4c(F)cccc4F)=N3)cc2)cc1)c1ccc(CC(C)C)cc1` (centres unmarked) [Example 155], the chromatographic logP turned out to be 6.7 in series [6] (A isomer) and 6.36 in series [6] (B isomer).

Consider `CON=C(COc1ccc(-c2ccc(C3COC(c4c(F)cccc4F)=N3)cc2)cc1)c1ccc(OC(F)(F)C(F)F)cc1` (centres unmarked) [Example 157], for which the chromatographic logP in series [6] (A isomer) was found to be 5.28; in series [6] (B isomer) it was 5.04.

In the case of `CCON=C(COc1ccc(-c2ccc(C3COC(c4c(F)cccc4F)=N3)cc2)cc1)c1ccc(OC(F)(F)C(F)F)cc1` (centres unmarked) [Example 158], the chromatographic logP in series [6] (A isomer) was 5.59; in series [6] (B isomer), 5.35.

`CON=C(C)C(C)(C)Oc1ccc(-c2ccc(C3COC(c4c(F)cccc4Cl)=N3)cc2)cc1` (centres unmarked) [Example 160] had a chromatographic logP in series [6] of 5.45.

In series [6], `CCON=C(C)C(C)(C)Oc1ccc(-c2ccc(C3COC(c4c(F)cccc4Cl)=N3)cc2)cc1` (centres unmarked) [Example 161] yielded a chromatographic logP of 5.88.

For `CC(=NO)C(C)(C)Oc1ccc(-c2ccc(C3COC(c4c(F)cccc4F)=N3)cc2)cc1` (centres unmarked) [Example 167], the chromatographic logP in series [6] (A isomer) amounted to 3.82; in series [6] (B isomer), 3.39.

As for `CON=C(C)C(C)(C)Oc1ccc(-c2ccc(C3COC(c4c(F)cccc4F)=N3)cc2)cc1Cl` (centres unmarked) [Example 170], the chromatographic logP in series [6] stood at 5.61.

As for `CCON=C(C)C(C)(C)Oc1ccc(-c2ccc(C3COC(c4c(F)cccc4F)=N3)cc2)cc1Cl` (centres unmarked) [Example 171], in series [6], the chromatographic logP was 5.05.

In turn, `CC(=O)C(C)(C)Oc1ccc(-c2ccc(C3COC(c4ccccc4Cl)=N3)cc2)cc1Cl` (centres unmarked) [Example 173] gave a chromatographic logP in series [6] of 5.02.

In series [6], `CON=C(C)C(C)(C)Oc1ccc(-c2ccc(C3COC(c4ccccc4Cl)=N3)cc2)cc1Cl` (centres unmarked) [Example 175] gave a chromatographic logP of 6.06.

`CCON=C(C)C(C)(C)Oc1ccc(-c2ccc(C3COC(c4ccccc4Cl)=N3)cc2)cc1Cl` (centres unmarked) [Example 176] came in with a chromatographic logP in series [6] of 6.49.

Turning to `CON=C(COc1ccc(-c2ccc(C3COC(c4c(F)cccc4F)=N3)cc2)cc1)c1ccc(C)c(C)c1` (centres unmarked) [Example 189], the chromatographic logP in series [6] (A isomer) came to 5.58; in series [6] (B isomer), 5.29.

Take `CCON=C(COc1ccc(-c2ccc(C3COC(c4c(F)cccc4F)=N3)cc2)cc1)c1ccc(C)c(C)c1` (centres unmarked) [Example 190]: the chromatographic logP is 5.94 in series [6] (A isomer) and 5.62 in series [6] (B isomer).

As for `CON=C(COc1ccc(-c2ccc(C3COC(c4c(F)cccc4F)=N3)cc2)cc1)c1cc(Cl)ccc1Cl` (centres unmarked) [Example 191], the chromatographic logP in series [6] (A isomer) was 5.62; in series [6] (B isomer) it was 5.44.

Turning to `CCON=C(COc1ccc(-c2ccc(C3COC(c4c(F)cccc4F)=N3)cc2)cc1)c1cc(Cl)ccc1Cl` (centres unmarked) [Example 192], the chromatographic logP in series [6] (A isomer) stood at 6; in series [6] (B isomer) it was 5.79.

Source of the values: patent US6211214A, “Biphenyl ether oxazolines and their use as pest-control agents” (Bayer Aktiengesellschaft, priority 1995, dated 2001).
